PubChem BioAssay (NCI)
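Results reflect a 48-hour exposure of cells in 96-well plates to compound at five concentrations. At the TGI there is no net growth.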

Assays:
Assay in all cases: inhibition of tumour cell growth, NCI panel, 48 h
UACC-62 melanoma = tested on: UACC-62 melanoma
BT-549 breast = tested on: BT-549 breast
ACHN renal = tested on: ACHN renal
NCI-H23 lung = tested on: NCI-H23 lung
M14 melanoma = tested on: M14 melanoma
SK-MEL-2 melanoma = tested on: SK-MEL-2 melanoma
SK-MEL-5 melanoma = tested on: SK-MEL-5 melanoma
HT29 colon = tested on: HT29 colon
EKVX NSCLC = tested on: EKVX NSCLC
TK-10 renal = tested on: TK-10 renal
COLO 205 colon = tested on: COLO 205 colon
HL-60(TB) leukemia = tested on: HL-60(TB) leukemia

Structure (SMILES)	TGI (UACC-62 melanoma) [µM]	TGI (BT-549 breast) [µM]	TGI (ACHN renal) [µM]	TGI (NCI-H23 lung) [µM]	TGI (M14 melanoma) [µM]	TGI (SK-MEL-2 melanoma) [µM]	TGI (SK-MEL-5 melanoma) [µM]	TGI (HT29 colon) [µM]	TGI (EKVX NSCLC) [µM]	TGI (TK-10 renal) [µM]	TGI (COLO 205 colon) [µM]	TGI (HL-60(TB) leukemia) [µM]
C=C(C)[C@@H]1CC[C@@H](C)[C@](O)([C@@H]2C[C@@H]([C@H](COC(=O)c3ccccc3)OC(=O)c3ccccc3)OC2=O)C1	> 100	> 100	> 100	> 100	> 100	> 100	> 100	> 100	> 100	> 100	> 100	–
NC12CC3CC(C1)CC(Cl)(C3)C2	> 100	–	> 100	> 100	> 100	> 100	–	> 100	> 100	> 100	> 100	> 100
COc1ccc(/C=C2\N=C(c3ccccc3)N(Nc3nnc(NN4C(=O)/C(=C/c5ccc(OC)cc5)N=C4c4ccccc4)c4ccccc34)C2=O)cc1	> 100	–	> 100	> 100	> 100	–	> 100	> 100	> 100	–	> 100	61.4
CC(=O)NCC1(c2ccccc2)CCN(CC2COc3ccccc3O2)CC1 (stereo not given)	> 100	–	> 100	> 100	> 100	> 100	> 100	> 100	> 100	> 100	> 100	> 100
CCOC(=O)c1nc2ccc(Cl)cc2c2c1CCO2	> 100	–	> 100	> 100	> 100	–	> 100	> 100	> 100	> 100	> 100	> 100
CO/C(=N\N=C\c1ccc(OC)cc1OC)c1ccncc1	–	–	> 10	> 10	–	> 10	> 10	–	–	> 10	> 10	> 10
O=C1/C(=C/c2ccc(Cl)cc2)NC(=S)N1CN1CCOCC1	> 100	–	> 100	> 100	> 100	> 100	> 100	> 100	> 100	> 100	> 100	–
COC(=O)[C@H]1C=C[C@@H](C)n2c(=O)c3ccccc3c(=O)n21	–	–	> 100	> 100	> 100	> 100	> 100	> 100	> 100	> 100	> 100	> 100
O=c1oc2cc(O)ccc2c(O)c1C(c1ccccn1)c1c(O)c2ccc(O)cc2oc1=O	> 100	> 100	> 100	> 100	> 100	> 100	> 100	> 100	> 100	> 100	> 100	–
NC(=O)c1csc(CCCCCCc2nc(C(N)=O)cs2)n1	> 100	–	> 100	> 100	> 100	> 100	> 100	> 59.8	> 100	> 100	> 100	> 100
CC(=O)OC1OC2C(NC(=O)OC(C)(C)C)C1CC2(OCc1ccccc1)OCc1ccccc1 (stereo not given)	42.2	–	80	41.7	50.6	38.9	33.1	> 100	> 100	44.3	41.5	35.2
NC1=CC(C(=O)c2ccncc2)c2nc3ccccc3nc21 (stereo not given)	> 100	> 100	> 100	> 100	> 100	> 100	> 100	> 100	> 100	> 100	> 100	–
Cn1c(=O)c2c(nc(C[N+]3([O-])CCOCC3)n2C)n(C)c1=O	> 100	–	> 100	> 100	> 100	> 100	> 100	> 100	> 100	> 100	> 100	> 100
O=C1Nc2ccccc2[C@]12C[C@H]2c1ccccn1	> 100	> 100	> 100	> 100	> 100	> 100	> 100	–	> 100	> 100	> 100	–
CCOc1ccc(N/C(=C(/C(Cl)=C(/Cl)NCCO)[N+](=O)[O-])n2nnc3ccccc32)cc1	56.7	38.6	48.4	33	> 100	> 100	–	85.3	> 100	–	29.7	–
COC(C/C(=C/CO[Si](C(C)C)(C(C)C)C(C)C)C(=O)Nc1ccccc1I)OC	> 100	–	> 100	> 100	> 100	31.1	> 100	> 100	–	> 100	> 100	–

Structure (SMILES)	TGI (UACC-62 melanoma) [µM]	TGI (BT-549 breast) [µM]	TGI (ACHN renal) [µM]	TGI (NCI-H23 lung) [µM]	TGI (M14 melanoma) [µM]	TGI (SK-MEL-2 melanoma) [µM]	TGI (SK-MEL-5 melanoma) [µM]	TGI (HT29 colon) [µM]	TGI (EKVX NSCLC) [µM]	TGI (TK-10 renal) [µM]	TGI (COLO 205 colon) [µM]	TGI (HL-60(TB) leukemia) [µM]
Nc1nc(N)nc(-c2cnccn2)n1	> 100	> 100	> 100	> 100	> 100	> 100	–	–	> 100	> 100	> 100	–
COc1ccc2c(c1)N(C(C)=O)CN1C(=O)CCC21 (stereo not given)	> 100	–	> 100	> 100	> 100	> 100	> 100	> 100	> 100	> 100	> 100	> 100
CCOC(OCC)c1ccc(/C=C/c2cc(OC)c(OC)c(OC)c2)cc1	33.2	–	> 100	–	31.9	–	28.5	33.6	> 100	82	33.5	30.1
O=C1C(Cl)C(c2ccc(Cl)cc2)N1n1cnc2ccccc2c1=O (stereo not given)	> 100	–	> 100	> 100	> 100	> 100	> 100	> 100	82.4	> 100	> 100	> 100
COc1ccc(-c2onc(-c3c(C)cc(C)cc3C)c2C2=NCCCN2)cc1	> 100	–	> 100	> 100	40.8	97.7	60.9	> 100	> 100	–	> 100	38.6
Cc1[nH]n(-c2nc3c(c(=O)[nH]2)CCC3)c(=O)c1CCO	> 100	–	> 100	> 100	> 100	> 100	> 100	> 100	> 100	> 100	> 100	> 100
O=C(O)c1cc(-c2ccccc2O)nc2ccccc12	> 100	–	> 100	> 100	> 100	> 100	> 100	> 100	> 100	> 100	> 100	–
COC1=CC(C2c3cc4c(cc3[C@@H](Nc3ccc([N+](=O)[O-])cc3)C3COC(=O)[C@H]23)OCO4)=CC(=O)C1=O (stereo not given in full)	8.96	–	4.43	4.68	> 37.7	92	19.9	35.8	> 95.2	43	73.2	–
O=[N+]([O-])/C(Cl)=C(\Nc1ccccc1)C(Cl)=C(Cl)Cl	94.5	–	> 100	> 100	58.4	91.6	47	69.9	> 100	> 100	39.5	40.1
NC(=O)C12C3C4C1C1C2C3C41C(N)=O (stereo not given)	> 100	–	> 100	> 100	> 100	> 100	> 100	> 100	> 100	> 100	> 100	> 100
CC(=O)c1c(O)ccc2c1CC(CC=O)O2 (stereo not given)	> 100	–	> 100	> 100	> 100	–	> 100	> 100	–	> 100	> 100	> 100
CN(C)CCCSc1c2ccccc2nc2cc(NCC(=O)Nc3ccccc3-c3ccccc3NC(=O)CNc3ccc4c(SCCCN(C)C)c5ccccc5nc4c3)ccc12	> 100	–	> 100	> 100	> 100	> 100	> 100	> 100	> 100	> 100	> 100	50.3
Cc1nccc2c1cnc1ccnn12	–	–	> 100	> 100	> 100	> 100	> 100	> 100	> 100	> 100	> 100	> 100
COc1ccc(C2CCC(Cl)(OC)CC2C=O)cc1 (stereo not given)	> 100	–	> 100	> 100	> 100	> 100	> 100	> 100	> 100	> 100	> 100	> 100
COc1ccc(Nc2nc(N)c(C(=O)c3ccc(OC)cc3)s2)cc1	> 100	–	–	> 93.4	–	> 55.4	> 100	> 48.5	> 89.1	> 60.7	> 100	0.802
CCOC(=O)C1=C(O)c2ccccc2C(=O)C1=O	> 100	–	> 100	> 100	> 100	> 100	> 100	> 100	> 100	> 100	> 100	> 100
